Laboratory results as given in patent US11957684B2, “Treatment of heavy menstrual bleeding associated with uterine fibroids” (Sumitomo Pharma Switzerland GmbH, priority 2016, dated 2024).
Values joined by “and” are separate entries in the source; they are usually repeats but may differ in a detail not shown here. Identical values can stand only once. Like-named read-outs stand apart in the source and are kept apart here.

Tested on: endometriosis-associated pain
Type: in vivo, human
Experimental: Subjects assessed and recorded their own quality of life (QOL) using the EHP-30 once a month during the study visit. As used in the examples, the VAS score was evaluated using a 100 mm scale. For pain intensity, the scale was anchored by “no pain” (score of 0) and “pain as bad as you can imagine” (score of 100). […] The above items were evaluated using a patient diary that was distributed by the sponsor. Subjects filled out the patient diary every day during the treatment period or until early termination. If taking prohibited analgesics, subjects recorded this fact in the patient diary along with the accompanying pain symptoms before use of analgesics. As used in the examples, pain during menstruation and pelvic pain unrelated to menstruation were evaluated using scores on the M-B&B and B&B. The M-B&B scores were recorded by subjects on the patient diary supplied by the sponsor. Subjects filled out the patient diary every day during the treatment period or until early termination. If taking prohibited analgesics, subjects recorded this fact in the patient diary along with the accompanying pain symptoms before use of analgesics. The investigator or subinvestigator assessed each patient's pain through interviews and filled out a B&B once a month. The items that were assessed are shown below. The M-B&B score included: dysmenorrhea (severe, moderate, mild, no pain, or no menstruation); pelvic pain (severe, moderate, mild, or no pain); deep dyspareunia (severe, moderate, mild, no pain, or no intercourse). The B&B score included: dysmenorrhea (severe, moderate, mild, none, or not applicable); dyspareunia (severe, moderate, mild, none, or not applicable); pelvic pain (severe, moderate, mild, or none); pelvic tenderness (severe, moderate, mild, or none); and induration (severe, moderate, mild, or none). As used in the examples, the EHP-30 score was obtained by subjects assessing and recording their own QOL using the EHP-30 questionnaire.

CONC(=O)Nc1ccc(-c2sc3c(c2CN(C)C)c(=O)n(-c2ccc(OC)nn2)c(=O)n3Cc2c(F)cccc2F)cc1 [Compound 1, N-(4-(1-(2,6-difluorobenzyl)-5-((dimethylamino)methyl)-3-(6-methoxy-3-pyridazinyl)-2,4-dioxo-1,2,3,4-tetrahydrothieno[2,3-d]pyrimidin-6-yl)phenyl)-N′-methoxyurea]
change from baseline in mean VAS, dysmenorrhea (10 mg, Day 1-28): −10.657±17.0824 mm | change from baseline in mean VAS, dyspareunia (10 mg, Day 1-28): 1.642±10.6212 mm | change from baseline in mean VAS, pelvic pain (10 mg, Day 1-28): −4.606±7.1304 mm | mean VAS score, dysmenorrhea (10 mg, Day 1-28): 17.556±17.0427 mm | mean VAS score, dyspareunia (10 mg, Day 1-28): 9.608±15.4027 mm | mean VAS score, pelvic pain (10 mg, Day 1-28): 9.988±10.3249 mm | change from baseline in mean VAS, dysmenorrhea (10 mg, Day 57-84): −14.747±16.8648 mm | change from baseline in mean VAS, dyspareunia (10 mg, Day 57-84): −1.033±12.2047 mm | change from baseline in mean VAS, pelvic pain (10 mg, Day 57-84): −6.282±9.1659 mm | mean VAS score, dysmenorrhea (10 mg, Day 57-84): 13.568±15.5954 mm | mean VAS score, dyspareunia (10 mg, Day 57-84): 10.110±18.5404 mm | mean VAS score, pelvic pain (10 mg, Day 57-84): 8.400±10.1329 mm | change from baseline in mean VAS, dysmenorrhea (10 mg, Day 141-168): −15.191±17.6754 mm | change from baseline in mean VAS, dyspareunia (10 mg, Day 141-168): −4.124±10.5641 mm | change from baseline in mean VAS, pelvic pain (10 mg, Day 141-168): −7.872±11.2457 mm | mean VAS score, dysmenorrhea (10 mg, Day 141-168): 11.758±15.4431 mm | mean VAS score, dyspareunia (10 mg, Day 141-168): 5.550±11.1157 mm | mean VAS score, pelvic pain (10 mg, Day 141-168): 6.861±9.2099 mm | change from baseline in EHP-30, control & powerlessness (10 mg, Week 24): −13.97±17.502 | change from baseline in EHP-30, emotional well-being (10 mg, Week 24): −8.38±15.918 | change from baseline in EHP-30, pain (10 mg, Week 24): −16.98±20.286 | change from baseline in EHP-30, social support (10 mg, Week 24): −7.52±10.840 | change from baseline in mean B&B score, dysmenorrhea (10 mg, Week 24): −1.0±0.87 | change from baseline in mean B&B score, dyspareunia (10 mg, Week 24): −0.3±0.67 | change from baseline in mean B&B score, pelvic pain (10 mg, Week 24): −0.8±0.79 | change from baseline in mean B&B score, pelvic tenderness (10 mg, Week 24): −0.7±0.83 | subjects without pain in B&B score, dysmenorrhea (10 mg, Week 24): 27.8% | subjects without pain in B&B score, dyspareunia (10 mg, Week 24): 63.9% | subjects without pain in B&B score, pelvic pain (10 mg, Week 24): 30.4% | subjects without pain in B&B score, pelvic tenderness (10 mg, Week 24): 35.4% | change from baseline in maximum M-B&B score, dysmenorrhea (10 mg, end of treatment): −0.7±1.01 | change from baseline in maximum M-B&B score, dyspareunia (10 mg, end of treatment): −0.2±0.69 | change from baseline in maximum M-B&B score, pelvic pain (10 mg, end of treatment): −0.7±0.94 | change from baseline in maximum VAS, dysmenorrhea (10 mg, end of treatment): −26.4±27.37 mm | change from baseline in maximum VAS, dyspareunia (10 mg, end of treatment): −4.2±16.30 mm | change from baseline in maximum VAS, pelvic pain (10 mg, end of treatment): −24.0±27.54 mm | change from baseline in mean M-B&B score, deep dyspareunia (10 mg, end of treatment): −0.171±0.4683 | change from baseline in mean M-B&B score, dysmenorrhea (10 mg, end of treatment): −0.509±0.6675 | change from baseline in mean M-B&B score, pelvic pain (10 mg, end of treatment): −0.260±0.3624 | change from baseline in mean VAS, dysmenorrhea (10 mg, end of treatment): −15.356±18.0506 mm | change from baseline in mean VAS, dyspareunia (10 mg, end of treatment): −3.454±10.8509 mm | change from baseline in mean VAS, pelvic pain (10 mg, end of treatment): −6.849 mm and −6.849±10.5616 mm | change from baseline in mean score of amount of bleeding (0 to 5) (10 mg, end of treatment): −0.529±1.2185 | change from baseline in proportion of days with usage of pain killer (10 mg, end of treatment): −6.32±9.817% | change in proportion of days without pain (M-B&B), deep dyspareunia (10 mg, end of treatment): 8.32±35.972% | change in proportion of days without pain (M-B&B), dysmenorrhea (10 mg, end of treatment): 29.55±42.700% | change in proportion of days without pain (M-B&B), pelvic pain (10 mg, end of treatment): 17.18±26.101% | change in proportion of days without pain (VAS), dysmenorrhea (10 mg, end of treatment): 29.28±43.277% | change in proportion of days without pain (VAS), dyspareunia (10 mg, end of treatment): 9.72±38.401% | change in proportion of days without pain (VAS), pelvic pain (10 mg, end of treatment): 17.90±24.924% | mean VAS score, dyspareunia (10 mg, end of treatment): 6.218±10.6280 mm | mean VAS score, pelvic pain (10 mg, end of treatment): 7.746±9.0900 mm | subjects who achieved amenorrhea (10 mg, end of treatment): 22.3% | subjects without pain in M-B&B score, dysmenorrhea (10 mg, end of treatment): 27.2% | subjects without pain in M-B&B score, dyspareunia (10 mg, end of treatment): 56.0% | subjects without pain in M-B&B score, pelvic pain (10 mg, end of treatment): 24.3% | subjects without pain in VAS score, dysmenorrhea (10 mg, end of treatment): 27.2% | subjects without pain in VAS score, dyspareunia (10 mg, end of treatment): 48.0% | subjects without pain in VAS score, pelvic pain (10 mg, end of treatment): 6.8% and 7% | change from baseline in mean VAS, dysmenorrhea (20 mg, Day 1-28): −9.158±16.6375 mm | change from baseline in mean VAS, pelvic pain (20 mg, Day 1-28): −3.962±6.6751 mm | mean VAS score, dysmenorrhea (20 mg, Day 1-28): 18.545±19.2141 mm | mean VAS score, dyspareunia (20 mg, Day 1-28): 10.809±15.5738 mm | mean VAS score, pelvic pain (20 mg, Day 1-28): 11.627±14.7324 mm | change from baseline in mean VAS, dysmenorrhea (20 mg, Day 57-84): −20.689±21.4387 mm | change from baseline in mean VAS, dyspareunia (20 mg, Day 57-84): −0.191±10.6032 mm | change from baseline in mean VAS, pelvic pain (20 mg, Day 57-84): −8.547±13.8568 mm | mean VAS score, dysmenorrhea (20 mg, Day 57-84): 6.626±13.5146 mm | mean VAS score, dyspareunia (20 mg, Day 57-84): 9.229±16.6530 mm | mean VAS score, pelvic pain (20 mg, Day 57-84): 6.675±10.8072 mm | change from baseline in mean VAS, dysmenorrhea (20 mg, Day 141-168): −19.860±19.1617 mm | change from baseline in mean VAS, dyspareunia (20 mg, Day 141-168): −4.012±12.5050 mm | change from baseline in mean VAS, pelvic pain (20 mg, Day 141-168): −8.678±10.6479 mm | mean VAS score, dysmenorrhea (20 mg, Day 141-168): 6.132±13.2012 mm | mean VAS score, dyspareunia (20 mg, Day 141-168): 3.806±8.9781 mm | mean VAS score, pelvic pain (20 mg, Day 141-168): 5.486±9.1562 mm | change from baseline in EHP-30, Self-image (20 mg, Week 24): −10.59±15.256 | change from baseline in EHP-30, control & powerlessness (20 mg, Week 24): −20.04±21.880 | change from baseline in EHP-30, emotional well-being (20 mg, Week 24): −15.37±17.858 | change from baseline in EHP-30, pain (20 mg, Week 24): −20.58±19.650 | change from baseline in EHP-30, social support (20 mg, Week 24): −13.44±17.055 | change from baseline in mean B&B score, dysmenorrhea (20 mg, Week 24): −1.5±0.94 | change from baseline in mean B&B score, dyspareunia (20 mg, Week 24): −0.4±0.70 | change from baseline in mean B&B score, pelvic pain (20 mg, Week 24): −0.9±0.85 | change from baseline in mean B&B score, pelvic tenderness (20 mg, Week 24): −0.8±0.79 | subjects without pain in B&B score, dysmenorrhea (20 mg, Week 24): 64.9% | subjects without pain in B&B score, dyspareunia (20 mg, Week 24): 53.6% | subjects without pain in B&B score, pelvic pain (20 mg, Week 24): 39.2% | subjects without pain in B&B score, pelvic tenderness (20 mg, Week 24): 37.8% | change from baseline in maximum M-B&B score, dysmenorrhea (20 mg, end of treatment): −1.4±1.12 | change from baseline in maximum M-B&B score, dyspareunia (20 mg, end of treatment): −0.3±0.59 | change from baseline in maximum M-B&B score, pelvic pain (20 mg, end of treatment): −0.7±0.79 | change from baseline in maximum VAS, dyspareunia (20 mg, end of treatment): −7.0±15.29 mm
